Measurements from paper PMC5641083, “Blockage of FOXP3 transcription factor dimerization and FOXP3/AML1 interaction inhibits T regulatory cell activity: sequence optimization of a peptide inhibitor” (Oncotarget, 2017).
Where a SMILES comes first, the peptide text is derived from it. [ ]: non-standard residue; d: D form.

Legend:
[1] = Metabolic stability in human liver microsomes; type: in vitro ADME; conditions: 1 μM, estimated by first order kinetics
Method: (§1) Metabolic stability was measured by Wuxi AppTech (Shanghai, China). Briefly, peptides (1 μM, 5% MeOH in potassium phosphate buffer) were incubated with human (catalogue no. 452161 from BD Gentest) and mouse (catalogue no. M1000, Xenotech) liver microsomes at 37°C for 10 min. Liver microsomes were at a final assay concentration of 0.7 mg protein/mL. The reaction was started by the addition of 90 μL of NADP cofactor solution and stopped by the addition of 300 μL of stop solution (acetonitrile at 4°C, including 100 ng/mL tolbutamide as an internal standard) after 20 min of incubation. The samples were shaken for 5 min and then centrifuged for 20 min at 1500 g. A 100 μL aliquot of the supernatant was transferred to eight new 96-well plates with 300 μL of HPLC water and centrifuged at 1500 g for LC-MS/MS analysis (Shimadzu LC 10-AD−API 4000). An injection volume of 10 μL was added to a Phenomenex Synergi C18 column eluting with formic acid in water or acetonitrile at a flow rate of 800 μL/min. The percent loss of parent compound was calculated from the peak area ratio of the analyte/internal standard. Compounds and positive controls were tested in duplicate.

[2] = system: AH1-specific IFN-γ producing cells; experiment: AH1 immunization in CD25+ depleted mice, IFN-γ ELISPOT; type: in vivo; conditions: mice depleted of CD25+ T cells, CM-1315 day 1 to day 7
From the text: We also studied the effect of CM-1315 peptide in vivo to improve the immune response after immunization with AH1 peptide in naïve mice and in mice depleted of CD25+ T cells. In this experiment, depletion of CD25+ T cells improved the number of AH1-specific IFN-γ producing cells.
Supplementary Figure 6: In vivo the effect of CM-1315 peptide to improve the immunogenicity of AH1 peptide vaccine.
AH1 peptide, encompassing a cytotoxic T cell epitope for H-2Ld MHC class I molecule, was emulsified in Incomplete Freund adjuvant as previously described and used to immunize groups of naïve mice and in mice depleted of CD25+ T cells (n = 4). A group of CD25 depleted mice was immunized with AH1 and treated with CM-1315 peptide from day 1 to day 7 after immunization. Ten days after, immune response against AH1 was measured by ELISPOT assay to quantify the number of IFN-γ producing cells.
(1 picture or pasted object on this page, not shown here)

[3] = system: CT26 tumor cells; experiment: AH1 vaccination and CT26 tumor challenge; type: in vivo, BALB/c mice; conditions: AH1 in IFA, peptide 10 nanomol/mice/day i.p. 10 days, challenge 10^6 CT26 cells s.c. day 10
Method: In those experiments, BALB/c mice were immunized with peptide AH1 emulsified in IFA and treated daily with saline or with 50 nanomol/mice/day of peptide P60 i.p. from day 0 to day 9 after immunization. To study the efficacy of CM-1315, our optimized version of P60, mice immunized with AH1 were treated with 10 nanomol/mice/day of P60 or CM-1315 and challenged at day 10 by s.c. injection with 10^6 CT26 tumor cells (instead of 5 × 10^5 cells used in our previous study). As control, groups of mice were injected with AH1 alone or left untreated.
For tumor rejection experiments, Hepa-129 cells (10^6 cells/mouse), were injected subcutaneously (sc) in C3H/HeN mice (n = 6). Ten days later, when the tumor reached 5 mm in diameter, mice were randomly divided into different experimental groups. A group of mice were treated i.p. with anti-PD1 antibodies (50 μg/mouse). Antibody administration was repeated one week after this first administration. A group of mice treated with anti-PD1 also received the cyclic peptide CM-1215 from days 10 to 20 (50 μg/mice/day). Tumor size, presented as the average of two perpendicular diameters (millimetres), was measured at regular intervals. Mice were sacrificed when the mean tumor diameter was greater than 20 mm. […] Tumor size was monitored twice a week with a calliper and it was expressed according to the formula V = (length × width^2)/2. […]

[4] = system: Treg cells; experiment: Treg pre-treated with peptide, then Treg suppression assay; type: cell-based; conditions: Treg incubated with peptide at 20 μM for 24 hours, washed
From the text: (§2) FOXP3 is critical for the development and function of Tregs, but also, FOXP3 can be transiently expressed in effector T cells after TCR stimulation leading to hyporesponsiveness of the effector T cell. […] We speculate that the Foxp3 inhibitory peptides may work at two levels: (i) reducing Treg function and (ii) releasing the brake of FOXP3 transient expression on effector T cells. Thus, we studied the effect of CM-1315 in T cell proliferation and IL-2 and IFN-γ production in effector T cells in response to anti-CD3 stimulation. The original P60, the optimized peptide CM-1315 and a control peptide were tested. […] We also studied the effect of the peptides directly in Tregs. Thus, freshly isolated Treg cells were pre-treated with the peptides for 24 h, and after extensive washing, they were used in conventional Treg suppression assay in coculture with effector T cells and anti-CD3 stimulation.
(§3) Supplementary Figure 4: Effect of Foxp3 inhibitory peptides in effector T cells alone. […] T cell proliferation (A) and IL-2 and IFN-γ (B and C) production in response to anti-CD3 stimulation was measured by 3H-thymidine incorporation and by ELISA respectively.
(§4) Supplementary Figure 5: Effect of FOXP3 inhibitory peptides in Treg cells. […] T cell proliferation was measured by 3H-thymidine incorporation assay. […]

[5] = system: CD4+CD25-ve splenocytes; experiment: Effector T cells alone stimulated with anti-CD3: proliferation, IL-2 and IFN-γ; type: cell-based; conditions: anti-CD3 stimulation, no Treg
From the text: as §2, §3, §4

[6] = Metabolic stability in mouse liver microsomes; type: in vitro ADME; conditions: 1 μM, estimated by first order kinetics
Method: as §1

half-life [1]: ~1 h
half-life [6]: ~1 h
SMILES: CSCC[C@@H]1NC(=O)[C@H](C)NC(=O)[C@H](Cc2ccccc2)NC(=O)[C@H](Cc2ccccc2)NC(=O)[C@@H]2CCCN2C(=O)[C@H](Cc2c[nH]c3ccccc23)NC(=O)[C@H](CCSC)NC(=O)[C@H](CCCCN)NC(=O)[C@H](CCCNC(=N)N)NC(=O)[C@H](Cc2ccccc2)NC(=O)[C@H](C)NC(=O)[C@H](CCC(N)=O)NC(=O)[C@H](Cc2ccccc2)NC(=O)[C@@H](C)NC(=O)[C@H](CCCNC(=N)N)NC1=O [CM-1315] (cyclo(R[dA]FQAFRKMWPFFAM))
Number of AH1-specific IFN-γ producing cells (in words) [2]: significantly improved this response
Protection against CT26 tumor challenge (in words) [3]: remained protected against challenge with CT26 tumor cells
Inhibition of suppressive activity of pre-treated Treg (in words) [4]: able to inhibit significantly the suppressive activity of Treg
T cell proliferation and IL-2, IFN-γ production of effector T cells (in words) [5]: more active than P60
